Experimental data published in patent US20050025758A1, “Method and compositions for treatment of insulin-dependant diabetes mellitus” (priority 1996, published 2005).
Marks after values point to notes of the source that are not given here.

Columns and labels:
female NOD mice [1] = assay: Histology: insulitis score and salivary gland infiltration; type: in vivo, mouse; settings: for Insulitis score: mean ± SD, scale 0-4, aerosol 10 consecutive days then weekly from 28 days of age, five non-diabetic mice per group at 105 days of age
Procedure: Mice were killed by CO2 inhalation and the pancreas and salivary glands immediately removed into Bouin's fixative and embedded in paraffin. The insulitis score, a measure of the severity of islet infiltration was determined blindly by two independent investigators by grading and then averaging a minimum of 15 separate islets in serial 6 μm pancreas sections stained with haematoxylin and eosin. The grading scale was: 0, no filtration, islet intact; 1, <10 peri-islet lymphoid cells, islet intact; 2, 10-20 peri-and intra-islet lymphoid cells, islet intact; 3, >20 peri- and intra-islet lymphoid cells, <50% of islet replaced or destroyed; 4, massive lymphoid infiltrate with >50% of islet replaced or destroyed. Infiltration of the salivary glands was graded by the number of lymphoid cells in clusters: 0, no cells; 1, <10 cells; 2, 10-50 cells; 3, >50 cells.
Mice (32/group) were given either aerosol insulin or ovalbumin for 10 consecutive days and then weekly from 28 days of age. At 105 days of age, five non-diabetic mice from each group were killed for pancreas histology. The insulitis score is expressed as mean ±SD. • 1.

male NOD mice = assay: Adoptive transfer of diabetes (co-transfer of splenocytes); type: in vivo, mouse
female NOD mice [2] = assay: Aerosol treatment and diabetes assessment (blood glucose >11 mM); type: in vivo, mouse; settings: for Diabetes frequency: 32 mice/group, aerosol 10 consecutive days then weekly from 28 days of age, at 105 days of age; for diabetes incidence at 156 days of age (median) / diabetes incidence at 240 days of age (median): aerosol for 3 or 10 consecutive days and then weekly from 28 days of age, five separate experiments; for diabetes incidence at 240 days of age (median): p=0.005; for incidence of diabetes by 240 days of age: single aerosol treatment at 28 days of age, female NOD mice
Procedure: Semi-sealed boxes of eight female NOD mice were each aerosolized by connection to a standard, patient electric pump ([…] Aerosol MKV, Anaesthetic Supplies, Sydney, Australia) and Aeroflo nebulizer (Waite & Co., Sydney). Recombinant human insulin (Humulin R, Eli Lilly) or control ovalbumin protein, at 4 mg/ml, was delivered over 10 min. at an air flow rate of 6 litres/min. in a rated droplet size of <5.8 μm, to groups of 24-32 mice. All treatments were given between 0900 and 1100 hours. Protocols and mouse care were approved and supervised by the institutional Animal Ethic Committee. Retro-orbital venous blood was sampled at least every 28 days from 100 days of age and mice considered to be diabetic if their blood glucose, confirmed by a repeat test, was >11 mM. Glucose was measured with BM-Test Glycemic® strips and a Reflolux® II meter (Boehringer-Mannheim), on a drop of blood aspirated via a glass capillary tube from the retro-orbital venous plexus of unanesthetised mice. Aerosol human insulin or ovalbumin were administered in different schedules to female NOD mice from 28 days of age, the earliest time at which insulitis is detectable in the colony of mice, and their incidence of diabetes and severity of insulitis subsequently measured.

female NOD mice [3] = assay: as above; type: in vivo, mouse; settings: aerosol for 10 consecutive days and then weekly, started at 49 days of age (insulitis well-established)
NOD female mice = assay: Intranasal insulin, proinsulin or proinsulin peptide 24-36, diabetes in NOD mice; type: in vivo, mouse; settings: for onset and incidence of diabetes: single intranasal dose at either 28 or 56 days of age, compared to control proteins ovalbumin or hen egg lysozyme; for effectiveness on a comparative dose basis: single intranasal dose, NOD female mice
Procedure: Intranasal insulin (FIG. 1), proinsulin (FIG. 2) or proinsulin peptide 24-36 (FIG. 3). Commercially available insulin at 4 mg/ml, or proinsuling or proinsulin peptide 24-36 at 1-4 mg/ml in either insulin carrier solution or mouse tonicity—phosphate buffered saline, was applied in a volume of 10-20 μl to the nostrils of unanaesthetised, restrained NOD female mice at either 28 or 56 days of age.

insulin antibodies = assay: Insulin antibodies in serum, 125I-insulin immunoprecipitation assay; type: in vivo, mouse; settings: sera n=12/group, aerosol-treated mice aged 70-105 days
Procedure: To detect insulin antibodies, ^125lablelled human insulin (approx. 100,000 cpm: specific activity 120 μCi/μg) was incubated with or without excess unlabelled insulin (10 μg/ml) in phosphate-buffered saline containing a mixture of protease inhibitors and serial log dilutions of mouse serum, for 5 days at 4° C. Complexes were then precipitated with rabbit anti-mouse globulin anti-serum, washed and counted in a gamma counter. Positive control sera (guinea pig anti-porcine insulin serum, human IDDM sera) maximally precipitated 37-54% of the total radioactivity. Non-specific binding, in the presence of excess unlabelled insulin, was ≦3.3%.
Insulin antibodies were measured by a standard immunoprecipitation assay with sera (n=12/group) from insulin- and ovalbumin-treated mice aged 70-105 days. […] Defective suppressor T-cell function has been postulated to shift the balance towards Th1 in IDDM (11). It seems unlikely that the reduced T-cell proliferative response to GAD could reflect ‘bystander’ suppression due to the secretion of the Th2 cytokines IL4 and IL-10 (8) by insulin aerosol-induced regulatory cells because, apart from an absence of added insulin in the cultures with GAD, responses to conA and anti-CD3 were not impaired. A direct explanation is that tile reduced response to GAD reflects the protective effect of aerosol insulin on insulitis and β-cell destruction. […]

[4] = tested on: splenocytes from aerosol-treated mice; assay: Cytokine secretion by splenocytes from aerosol-treated mice (ELISA); type: cell-based; settings: splenocytes with 40 μg/ml mouse insulin II B chain peptide (a 9-23), three days incubation; for IL-4 secretion / IL-10 secretion: lower limit of detection 16 pg/ml
Procedure: (§1) Spleen cells from individual normoglycemic mice were treated with a red cell lysis buffer, resuspended and incubated in quadruplicate at 2×10^5/200 μl of serum-free HL-1 medium (Hycor, Irvine, Calif.) containing […] 2-mercaptoethanol, in round-bottom wells with the indicated concentrations of antigen. After 3 days at 37° C. in 5% v/v CO2/air, 100 μl aliquots from each replicate supernatant were collected and stored at −70° C. for cytokine assays; the cells were then pulsed with 3H-thymidine, harvested 16 hours later and counted on a Topcount™ micro-scintillation counter (Packard, Meriden, Conn.). Insulin was recombinant human (Humulin R, Eli Lilly), is used for aerosol treatments. Insulin B-chain peptide corresponding to amino acids 9-23 of mouse insulin II (Peptide Express, Fort Collins, Colo.) was more than 90% pure by HPLC analysis. GAD65 was the recombinant human form expressed with a C-terminal hexahistidine in a baculovirus system and purified by Ni^2+ chelation) affinity chromatography. It was resolved as a single band in SDS-PAGE and was endotoxin-free by the quantitative Limulus lysate assay (BioWhittaker, Walkersville, Md.).
IL-2, -4, -10 and IFN-γ were measured by ELISAs with monoclonal antibody pairs (Pharmingen); the lower limits of detection were 62, 16, 16 and 55 pg/ml, respectively. TGF-β1 was measured with an ELISA kit (Promega) with a lower limit of detection of 16 pg/ml.
Supernatants from replicate culture wells (Table 2) were sampled alter three days incubation and assayed for cytokines.

[5] = humans, in the absence of absorption-promoting agents; cited from earlier work
[6] = tested on: at-risk first-degree relatives with immune markers of IDDM; settings: intranasal
From the text: A clinical trial involves administration of intranasal insulin to at-risk but otherwise healthy first-degree relatives with immune markers of IDDM, including circulating antibodies and T cells reactive with islet autoantigens.
This trial examines the effect of intranasal insulin on the surrogate immune markers of IDDM. The design is randomized, double-blind and placebo-controlled, with a crossover at six months. The placebo is the carrier solution normally used for insulin. […] Treatment is administered daily for 10 consecutive days, then for two consecutive days weekly. After six months, treatment is crossed over (from insulin to placebo, or vice versa).
The administration dose of insulin per nostril is approximately 200 μl of the commercial 4 mg/ml solution. The placebo is the carrier solution in which the insulin is normally dissolved.

[7] = tested on: splenocytes from aerosol-treated mice; assay: Proliferative responses of splenocytes from aerosol-treated mice ([3H]-thymidine uptake); type: cell-based, mouse
Procedure: as §1
Splenocytes from three mice per group were assayed in quadruplicate in HL-1 serum-free medium. Statistical comparisons (Mann-Whitney U tests) were between the twelve results for each group.

NOD mouse = settings: oral, 1 mg twice weekly; cited from earlier work
[8] = additive: Anti-CD3 antibody (10 μg/ml)
[9] = additive: Concanavalin A (5 μg/ml)
[10] = additive: Human GAD65 (20 μg/ml)
[11] = additive: Human insulin (40 μg/ml)
[12] = additive: Mouse insulin II B-chain (a 9-23) (40 μg/ml)

| Substance | Insulitis score (female NOD mice [1]) | Diabetes frequency (female NOD mice [2]) | diabetes incidence at 156 days of age (median) (female NOD mice [2]) | diabetes incidence at 240 days of age (median) (female NOD mice [2]) | incidence of diabetes by 240 days of age (female NOD mice [2]) | diabetes incidence at 156 days (female NOD mice [3]) | onset and incidence of diabetes (NOD female mice) | Precipitation of 125I-insulin radioactivity by antibodies in sera (mean precipitated ± SD) (insulin antibodies) | IFN-γ secretion [4] | IL-2 secretion [4] | TGF-β secretion [4] | IL-4 secretion [4] | IL-10 secretion [4] | [3H]-thymidine uptake (cpm, mean ± SD) [7, 8] | [3H]-thymidine uptake (cpm, mean ± SD) [7, 9] | [3H]-thymidine uptake (cpm, mean ± SD) [7, 10] | [3H]-thymidine uptake (cpm, mean ± SD) [7, 11] | [3H]-thymidine uptake (cpm, mean ± SD) [7, 12] | [3H]-thymidine uptake (cpm, mean ± SD) ([7]; additive: None) | effectiveness on a comparative dose basis (NOD female mice) | also measured |
| --- | --- | --- | --- | --- | --- | --- | --- | --- | --- | --- | --- | --- | --- | --- | --- | --- | --- | --- | --- | --- | --- |
| Recombinant human insulin | 1.2 ± 0.98^1 | 2/32 (6.3%)^2 | 23% | 49% | 75% | 25% | significantly delayed the onset and decreased the incidence of diabetes | 12.7±3.6% | 368 ± 71 pg/mL | 200 ± 15 pg/mL | 293 ± 131 | 36 ± 6 pg/mL | 222 ± 149 pg/mL | 2221 ± 533 cpm | 3357 ± 812 cpm | 424 ± 165^c cpm | 134 ± 27 cpm | 169 ± 80^b cpm | 157 ± 28^a cpm | – | Infiltration of the salivary glands by lymphoid cells (sialitis) (female NOD mice [1]; NOD mice, aerosol treatment): unaffected; Diabetes incidence after transfer decreased (male NOD mice; 1.4×10^5 γδ T cells from aerosol-treated mice co-injected with 2×10^7 spleen cells from diabetic mice, for at least 70 days): 50%; Diabetes incidence suppressed after adoptive transfer (male NOD mice; co-injection of splenocytes or nylon wool-non-adherent splenocytes from aerosol-treated mice with 2×10^7 diabetic spleen cells, six separate experiments): ≥ 75%; clinical complications or abnormalities at autopsy (female NOD mice [2]; NOD mice treated with aerosol or intranasal insulin): no clinical complications, or abnormalities at autopsy; systemic uptake from the naso-pharyngeal mucosa [5]: insignificant; side effects ([6]; 36 high-risk subjects aged 4-30): No significant side effects; mucosal irritation ([6]; human subjects): only been rare and then minor and transient |
| ovalbumin [control ovalbumin protein, at 4 mg/ml, delivered as aerosol] | 2.6 ± 0.92 | 8/32 (25%) | 47% | 79% | 88% | 58% | – | 6.9±2.5% | 423 ± 31 pg/mL | 186 ± 27 pg/mL | 162 ± 41 | not detectable | not detectable | 2643 ± 1126 cpm | 2960 ± 494 cpm | 1381 ± 650^f cpm | 197 ± 82 cpm | 435 ± 240^e cpm | 208 ± 29^d cpm | – | – |
| porcine insulin [oral porcine insulin] | – | – | – | – | – | – | – | – | – | – | – | – | – | – | – | – | – | – | – | – | onset and incidence of diabetes (NOD mouse): delayed the onset and reduced the incidence of diabetes |
| proinsulin | – | – | – | – | – | – | significantly delayed the onset and decreased the incidence of diabetes | – | – | – | – | – | – | – | – | – | – | – | – | more effective than insulin | – |
| proinsulin peptide 24-36 (AFVNQHLCGSHLV; pro-form; UniProt P01308 24-36, looked up, fragment) [peptide fragment of proinsulin, amino acids 24-36, applied intranasally at 1-4 mg/ml] | – | – | – | – | – | – | significantly delayed the onset and decreased the incidence of diabetes | – | – | – | – | – | – | – | – | – | – | – | – | more effective than insulin | adoptive transfer of diabetes by splenocytes from diabetic mice (male NOD mice; whole splenocytes, and splenocytes depleted of CD8 but not CD4 T cells, from female mice given a single intranasal dose at 28 days, taken at 56 days): significantly suppressed the adoptive transfer of diabetes |
